Laboratory results as given in patent publication US10865208B2, “ATG7 inhibitors and the uses thereof” (Millennium Pharmaceuticals, Inc., priority 2016, dated 2020).

Target: recombinant human His-ATG7 enzyme (Homo sapiens (Human), UniProt O95352)
Experiment: ATG7 Enzyme Assay (HTRF/FRET, ATG3-GST and Flag-Gabarap)
Assay type: biochemical
Settings: for inhibition at 0.111 µM: Concentration 0.111 μM; for inhibition at 0.111 µM / inhibition at 0.123 µM: read-out: Percent Inhibition; for inhibition at 0.123 µM: Concentration 0.123 μM
Outline: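 HTRF read-out after 2 h at 24° C, using Eu-cryptate anti-Flag and XL-APC anti-GST antibodies in an EDTA stop buffer. The preceding 105 min, 24° C reaction (pH 7.5) held 10 μM ATP, 5 nM each ATG3-GST and Flag-Gabarap, and 0.15 nM human His-ATG7. Values are IC50 or percent inhibition at one concentration.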

Sequence of recombinant human His-ATG7 enzyme (O95352 whole entry): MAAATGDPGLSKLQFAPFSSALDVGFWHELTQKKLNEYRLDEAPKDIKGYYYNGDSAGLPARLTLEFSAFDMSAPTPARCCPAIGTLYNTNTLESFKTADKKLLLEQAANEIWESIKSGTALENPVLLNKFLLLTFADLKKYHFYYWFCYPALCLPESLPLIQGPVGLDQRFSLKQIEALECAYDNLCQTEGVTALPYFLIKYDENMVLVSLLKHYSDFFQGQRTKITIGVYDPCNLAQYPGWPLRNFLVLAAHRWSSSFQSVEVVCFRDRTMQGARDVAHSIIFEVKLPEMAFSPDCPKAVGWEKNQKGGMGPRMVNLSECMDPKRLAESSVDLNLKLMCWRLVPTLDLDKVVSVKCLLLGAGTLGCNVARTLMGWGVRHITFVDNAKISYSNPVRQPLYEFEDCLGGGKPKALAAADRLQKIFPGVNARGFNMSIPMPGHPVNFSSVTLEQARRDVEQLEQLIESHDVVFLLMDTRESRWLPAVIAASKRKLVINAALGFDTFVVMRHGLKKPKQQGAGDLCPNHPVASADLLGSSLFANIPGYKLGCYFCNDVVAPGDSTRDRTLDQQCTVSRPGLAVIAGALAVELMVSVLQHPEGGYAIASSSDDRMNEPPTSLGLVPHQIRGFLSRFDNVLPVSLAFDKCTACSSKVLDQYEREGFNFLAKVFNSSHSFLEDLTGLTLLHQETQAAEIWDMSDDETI

## CSc1nn([C@@H]2O[C@@H](COS(N)(=O)=O)[C@@H](O)[C@H]2O)c2ncnc(N)c12 [Compound I-94, {(2S,3S,4R,5R)-5-[4-amino-3-(methylsulfanyl)-1H-pyrazolo[3,4-d]pyrimidin-1-yl]-3,4-dihydroxytetrahydrofuran-2-yl}methyl Sulfamate]
  IC50: 100 to 500 nM
  inhibition at 0.111 µM: 28%

## CC(C)Sc1nn([C@@H]2O[C@@H](COS(N)(=O)=O)[C@@H](O)[C@H]2O)c2ncnc(N)c12 [Compound I-95, {(2S,3S,4R,5R)-5-[4-amino-3-(isopropylsulfanyl)-1H-pyrazolo[3,4-d]pyrimidin-1-yl]-3,4-dihydroxytetrahydrofuran-2-yl}methyl Sulfamate]
  IC50: 100 to 500 nM
  inhibition at 0.123 µM: 47%

## CSc1nn([C@@H]2O[C@@H](COS(N)(=O)=O)[C@@H](O)[C@@H]2F)c2ncnc(N)c12 [Compound I-96, {(2S,3R,4S,5R)-5-[4-amino-3-(methylsulfanyl)-1H-pyrazolo[3,4-d]pyrimidin-1-yl]-4-fluoro-3-hydroxytetrahydrofuran-2-yl}methyl Sulfamate]
  IC50: 100 to 500 nM
  inhibition at 0.111 µM: 44%

## Nc1ncnc2c1c(SCC1CC(F)(F)C1)nn2[C@@H]1O[C@H](COS(N)(=O)=O)[C@@H](O)[C@@H]1F [Compound I-97, [(2R,3R,4S,5R)-5-(4-amino-3-{[(3,3-difluorocyclobutyl)methyl]sulfanyl}-1H-pyrazolo[3,4-d]pyrimidin-1-yl)-4-fluoro-3-hydroxytetrahydrofuran-2-yl]methyl sulfamate]
  IC50: 20 to 50 nM
  inhibition at 0.111 µM: 66%

## Nc1ncnc2c1c(SC(F)F)nn2[C@@H]1O[C@H](COS(N)(=O)=O)[C@@H](O)[C@@H]1F [Compound I-98, [(2R,3R,4S,5R)-5-{4-amino-3-[(difluoromethyl)sulfanyl]-1H-pyrazolo[3,4-d]pyrimidin-1-yl}-4-fluoro-3-hydroxytetrahydrofuran-2-yl]methyl sulfamate]
  IC50: 20 to 50 nM
  inhibition at 0.111 µM: 77%

## Nc1ncnc2c1c(OC(F)F)nn2[C@@H]1O[C@H](COS(N)(=O)=O)[C@@H](O)[C@@H]1F [Compound I-99, {(2R,3R,4S,5R)-5-[4-amino-3-(difluoromethoxy)-1H-pyrazolo[3,4-d]pyrimidin-1-yl]-4-fluoro-3-hydroxytetrahydrofuran-2-yl}methyl Sulfamate]
  IC50: 20 to 50 nM
  inhibition at 0.111 µM: 70%

## Cc1occc1Sc1nn([C@@H]2O[C@H](COS(N)(=O)=O)[C@@H](O)[C@@H]2F)c2ncnc(N)c12 [Compound I-100, [(2R,3R,4S,5R)-5-{4-amino-3-[(2-methyl-3-furyl)sulfanyl]-1H-pyrazolo[3,4-d]pyrimidin-1-yl}-4-fluoro-3-hydroxytetrahydrofuran-2-yl]methyl sulfamate]
  IC50: 100 to 500 nM
  inhibition at 0.111 µM: 50%

## Cc1cccc(Sc2nn([C@@H]3O[C@H](COS(N)(=O)=O)[C@@H](O)[C@@H]3F)c3ncnc(N)c23)n1 [Compound I-102, [(2R,3R,4S,5R)-5-{4-amino-3-[(6-methylpyridin-2-yl)sulfanyl]-1H-pyrazolo[3,4-d]pyrimidin-1-yl}-4-fluoro-3-hydroxytetrahydrofuran-2-yl]methyl sulfamate]
  IC50: 50 to 100 nM
  inhibition at 0.111 µM: 68%

## Nc1ncnc2c1c(SC1CCCC1)nn2[C@@H]1O[C@H](COS(N)(=O)=O)[C@@H](O)[C@@H]1F [Compound I-103, {(2R,3R,4S,5R)-5-[4-amino-3-(cyclopentylsulfanyl)-1H-pyrazolo[3,4-d]pyrimidin-1-yl]-4-fluoro-3-hydroxytetrahydrofuran-2-yl}methyl sulfamate]
  IC50: < 20 nM
  inhibition at 0.111 µM: 84%

## CCN(CC)CCSc1nn([C@@H]2O[C@H](COS(N)(=O)=O)[C@@H](O)[C@@H]2F)c2ncnc(N)c12 [Compound I-104, [(2R,3R,4S,5R)-5-(4-amino-3-{[2-(diethylamino)ethyl]sulfanyl}-1H-pyrazolo[3,4-d]pyrimidin-1-yl)-4-fluoro-3-hydroxytetrahydrofuran-2-yl]methyl sulfamate]
  IC50: 100 to 500 nM
  inhibition at 0.111 µM: 38%

## COc1nn([C@@H]2O[C@H](COS(N)(=O)=O)[C@@H](O)[C@@H]2F)c2ncnc(N)c12 [Compound I-105, [(2R,3R,4S,5R)-5-(4-amino-3-methoxy-1H-pyrazolo[3,4-d]pyrimidin-1-yl)-4-fluoro-3-hydroxytetrahydrofuran-2-yl]methyl Sulfamate]
  IC50: 100 to 500 nM
  inhibition at 0.123 µM: 42%

## Nc1ncnc2c1c(Sc1cccc(Cl)c1)nn2[C@@H]1O[C@H](COS(N)(=O)=O)[C@@H](O)[C@@H]1F [Compound I-106, [(2R,3R,4S,5R)-5-{4-amino-3-[(3-chlorophenyl)sulfanyl]-1H-pyrazolo[3,4-d]pyrimidin-1-yl}-4-fluoro-3-hydroxytetrahydrofuran-2-yl]methyl Sulfamate]
  IC50: 20 to 50 nM
  inhibition at 0.123 µM: 78%

## COc1cccc(Sc2nn([C@@H]3O[C@H](COS(N)(=O)=O)[C@@H](O)[C@@H]3F)c3ncnc(N)c23)n1 [Compound I-107, [(2R,3R,4S,5R)-5-{4-amino-3-[(6-methoxypyridin-2-yl)sulfanyl]-1H-pyrazolo[3,4-d]pyrimidin-1-yl}-4-fluoro-3-hydroxytetrahydrofuran-2-yl]methyl sulfamate]
  IC50: 50 to 100 nM
  inhibition at 0.111 µM: 61%

## Nc1ncnc2c1c(C1CC1)nn2[C@@H]1O[C@H](COS(N)(=O)=O)[C@@H](O)[C@@H]1F [Compound I-108, [(2R,3R,4S,5R)-5-(4-amino-3-cyclopropyl-1H-pyrazolo[3,4-d]pyrimidin-1-yl)-4-fluoro-3-hydroxytetrahydrofuran-2-yl]methyl sulfamate]
  IC50: > 500 nM
  inhibition at 0.111 µM: 19%

## Nc1ncnc2c1c(Sc1ccccc1F)nn2[C@@H]1O[C@H](COS(N)(=O)=O)[C@@H](O)[C@@H]1F [Compound I-109, [(2R,3R,4S,5R)-5-{4-amino-3-[(2-fluorophenyl)sulfanyl]-1H-pyrazolo[3,4-d]pyrimidin-1-yl}-4-fluoro-3-hydroxytetrahydrofuran-2-yl]methyl sulfamate]
  IC50: 20 to 50 nM
  inhibition at 0.111 µM: 82%

## Cc1cc(Sc2nn([C@@H]3O[C@H](COS(N)(=O)=O)[C@@H](O)[C@@H]3F)c3ncnc(N)c23)c(C)o1 [Compound I-110, [(2R,3R,4S,5R)-5-{4-amino-3-[(2,5-dimethyl-3-furyl)sulfanyl]-1H-pyrazolo[3,4-d]pyrimidin-1-yl}-4-fluoro-3-hydroxytetrahydrofuran-2-yl]methyl sulfamate]
  IC50: 50 to 100 nM
  inhibition at 0.111 µM: 56%

## Nc1ncnc2c1c(Sc1ccc([N+](=O)[O-])cn1)nn2[C@@H]1O[C@H](COS(N)(=O)=O)[C@@H](O)[C@@H]1F [Compound I-111, [(2R,3R,4S,5R)-5-{4-amino-3-[(5-nitropyridin-2-yl)sulfanyl]-1H-pyrazolo[3,4-d]pyrimidin-1-yl}-4-fluoro-3-hydroxytetrahydrofuran-2-yl]methyl sulfamate]
  IC50: 20 to 50 nM
  inhibition at 0.111 µM: 73%

## Cn1ccnc1CSc1nn([C@@H]2O[C@H](COS(N)(=O)=O)[C@@H](O)[C@@H]2F)c2ncnc(N)c12 [Compound I-112, [(2R,3R,4S,5R)-5-(4-amino-3-{[(1-methyl-1H-imidazol-2-yl)methyl]sulfanyl}-1H-pyrazolo[3,4-d]pyrimidin-1-yl)-4-fluoro-3-hydroxytetrahydrofuran-2-yl]methyl sulfamate]
  IC50: 100 to 500 nM
  inhibition at 0.111 µM: 44%

## Nc1ncnc2c1c(Sc1ccccn1)nn2[C@@H]1O[C@H](COS(N)(=O)=O)[C@@H](O)[C@@H]1F [Compound I-113, {(2R,3R,4S,5R)-5-[4-amino-3-(pyridin-2-ylsulfanyl)-1H-pyrazolo[3,4-d]pyrimidin-1-yl]-4-fluoro-3-hydroxytetrahydrofuran-2-yl}methyl sulfamate]
  IC50: < 20 nM
  inhibition at 0.111 µM: 89%

## Cc1ccnc(Sc2nn([C@@H]3O[C@H](COS(N)(=O)=O)[C@@H](O)[C@@H]3F)c3ncnc(N)c23)c1 [Compound I-114, [(2R,3R,4S,5R)-5-{4-amino-3-[(4-methylpyridin-2-yl)sulfanyl]-1H-pyrazolo[3,4-d]pyrimidin-1-yl}-4-fluoro-3-hydroxytetrahydrofuran-2-yl]methyl sulfamate]
  IC50: < 20 nM
  inhibition at 0.111 µM: 90%

## CSc1nn([C@@H]2O[C@H](COS(N)(=O)=O)[C@@H](O)[C@@H]2F)c2ncnc(N)c12 [Compound I-115, {(2R,3R,4S,5R)-5-[4-amino-3-(methylsulfanyl)-1H-pyrazolo[3,4-d]pyrimidin-1-yl]-4-fluoro-3-hydroxytetrahydrofuran-2-yl}methyl Sulfamate]
  IC50: 20 to 50 nM
  inhibition at 0.123 µM: 73%

## Nc1ncnc2c1c(Sc1cccc(F)c1)nn2[C@@H]1O[C@H](COS(N)(=O)=O)[C@@H](O)[C@@H]1F [Compound I-116, [(2R,3R,4S,5R)-5-{4-amino-3-[(3-fluorophenyl)sulfanyl]-1H-pyrazolo[3,4-d]pyrimidin-1-yl}-4-fluoro-3-hydroxytetrahydrofuran-2-yl]methyl sulfamate]
  IC50: 20 to 50 nM
  inhibition at 0.111 µM: 75%

## Nc1ncnc2c1c(Sc1cc(C(F)(F)F)ccn1)nn2[C@@H]1O[C@H](COS(N)(=O)=O)[C@@H](O)[C@@H]1F [Compound I-117, [(2R,3R,4S,5R)-5-(4-amino-3-{[4-(trifluoromethyl)pyridin-2-yl]sulfanyl}-1H-pyrazolo[3,4-d]pyrimidin-1-yl)-4-fluoro-3-hydroxytetrahydrofuran-2-yl]methyl sulfamate]
  IC50: 20 to 50 nM
  inhibition at 0.111 µM: 83%

## CC(C)(C)Sc1nn([C@@H]2O[C@H](COS(N)(=O)=O)[C@@H](O)[C@@H]2F)c2ncnc(N)c12 [Compound I-118, {(2R,3R,4S,5R)-5-[4-amino-3-(tert-butylsulfanyl)-1H-pyrazolo[3,4-d]pyrimidin-1-yl]-4-fluoro-3-hydroxytetrahydrofuran-2-yl}methyl sulfamate]
  IC50: < 20 nM
  inhibition at 0.111 µM: 86%
